Among the data in patent publication US20260092074A1, “Annelated Pyridines as Steroidogenesis Inhibitors, Preparation Method and Use Thereof” (Guangzhou Vinnocent Pharmaceutical Limited, priority 2022, published 2026) are IC50 values, retold here.

One test addresses T1, human CYP11B2 (Homo sapiens, UniProt P19099).
T1 construct: expressed in transfected cells
T1 sequence (P19099 25-503): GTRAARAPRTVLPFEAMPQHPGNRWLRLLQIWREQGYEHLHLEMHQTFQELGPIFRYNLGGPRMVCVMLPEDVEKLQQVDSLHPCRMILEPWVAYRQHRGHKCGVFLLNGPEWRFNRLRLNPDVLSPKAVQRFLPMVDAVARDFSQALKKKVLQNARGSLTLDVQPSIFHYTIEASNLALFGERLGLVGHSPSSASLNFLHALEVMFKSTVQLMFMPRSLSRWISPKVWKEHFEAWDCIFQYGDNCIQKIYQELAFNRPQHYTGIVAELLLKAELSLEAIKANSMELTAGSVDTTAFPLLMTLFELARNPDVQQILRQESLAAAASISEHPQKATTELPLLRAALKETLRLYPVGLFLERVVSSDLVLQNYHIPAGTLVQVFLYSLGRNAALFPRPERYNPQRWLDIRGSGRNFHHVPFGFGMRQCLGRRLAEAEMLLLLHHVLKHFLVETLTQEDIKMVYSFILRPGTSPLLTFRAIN
Nature of the test: Inhibition of hCYP11B2 in transfected V79 cells. The test is classed as cell-based. Conditions: hamster V79 cells expressing human CYP11B2; substrate 11-deoxycorticosterone 200 nM. In outline:
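The substrate (200 nM, 30 min) was added after a 2 hour compound pre-incubation in lentivirus-transduced V79 cells stably expressing human CYP11B2 plus rat NADPH-P450 reductase.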

Another test addresses T2, human CYP11B1 (Homo sapiens, UniProt P15538).
T2 construct: expressed in transfected cells
T2 sequence (P15538 25-503): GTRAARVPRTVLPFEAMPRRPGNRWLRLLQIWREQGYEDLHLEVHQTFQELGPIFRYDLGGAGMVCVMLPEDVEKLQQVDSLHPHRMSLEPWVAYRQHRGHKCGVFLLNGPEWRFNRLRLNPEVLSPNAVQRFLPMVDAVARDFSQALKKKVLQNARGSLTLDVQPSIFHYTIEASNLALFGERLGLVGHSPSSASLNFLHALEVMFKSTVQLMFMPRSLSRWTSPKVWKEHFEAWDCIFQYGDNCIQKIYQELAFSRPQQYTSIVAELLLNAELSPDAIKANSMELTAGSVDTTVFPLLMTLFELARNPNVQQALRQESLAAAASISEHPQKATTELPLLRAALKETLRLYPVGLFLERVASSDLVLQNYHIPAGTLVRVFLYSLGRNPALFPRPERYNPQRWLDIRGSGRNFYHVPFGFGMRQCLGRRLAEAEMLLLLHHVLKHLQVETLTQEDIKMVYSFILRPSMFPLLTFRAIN
The experiment in a line: Inhibition of hCYP11B1 in transfected V79 cells. The test is classed as cell-based. Conditions: hamster V79 cells expressing human CYP11B1; substrate 11-deoxycortisol 200 nM. In outline:
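Reactions started with 200 nM 11-deoxycortisol, ran for 30 min and were stopped with ethyl acetate, after a 2 h compound preincubation. The host was stably transfected V79 hamster cells carrying human CYP11B1 plus rat P450 reductase. Percent inhibition, from LC-MS/MS or HPLC (260 nm) quantitation of substrate and product, gave the IC50.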

Usually IC50 stands for the concentration needed to halve the response being measured. As for `Cc1cccc(C(=O)N2CCSc3c(-c4ccc(C#N)cc4)cncc32)c1` [S91, 4-(4-(3-Methylbenzoyl)-3,4-dihydro-2H-pyrido[4,3-b][1,4]thiazin-8-yl)benzonitrile], the IC50 is 44 nM on human CYP11B2 and 3650 nM at human CYP11B1.
In the case of `N#Cc1ccc(-c2cncc3c2SCCN3C(=O)c2ccc(Cl)cc2)cc1` [S92, 4-(4-(4-Chlorobenzoyl)-3,4-dihydro-2H-pyrido[4,3-b][1,4]thiazin-8-yl)benzonitrile], the IC50 came out at 13 nM on human CYP11B2 and 856 nM at human CYP11B1.
The matching figures for `N#Cc1ccc(-c2cncc3c2SCCN3C(=O)c2cccc(Cl)c2)cc1` [S93, 4-(4-(3-Chlorobenzoyl)-3,4-dihydro-2H-pyrido[4,3-b][1,4]thiazin-8-yl)benzonitrile]: 24 nM and 1310 nM.
As for `N#Cc1ccc(C(=O)N2CCSc3c(-c4ccc(C#N)cc4)cncc32)cc1` [S94, 4-(4-(4-Cyanobenzoyl)-3,4-dihydro-2H-pyrido[4,3-b][1,4]thiazin-8-yl)benzonitrile], the IC50 against human CYP11B2 was 38 nM; at human CYP11B1 it was 2660 nM.
As to `N#Cc1ccc(-c2cncc3c2SCCN3C(=O)c2cccc(C#N)c2)cc1` [S95, 3-(8-(4-Cyanophenyl)-3,4-dihydro-2H-pyrido[4,3-b][1,4]thiazine-4-carbonyl)benzonitrile], the half-inhibitory concentration (IC50) against human CYP11B2 is 79 nM; at human CYP11B1, 2060 nM.
The matching figures for `COc1cccc(C(=O)N2CCSc3c(-c4ccc(C#N)cc4)cncc32)c1` [S96, 4-(4-(3-Methoxybenzoyl)-3,4-dihydro-2H-pyrido[4,3-b][1,4]thiazin-8-yl)benzonitrile]: 11 nM and 643 nM.
As to `COc1ccc(C(=O)N2CCSc3c(-c4ccc(C#N)cc4)cncc32)cc1` [S97, 4-(4-(4-Methoxybenzoyl)-3,4-dihydro-2H-pyrido[4,3-b][1,4]thiazin-8-yl)benzonitrile], the half-inhibitory concentration (IC50) against human CYP11B2 turned out to be 21 nM; against human CYP11B1, 4210 nM.
`COc1ccc(C(=O)N2CCSc3c(-c4cc5cc(C#N)ccc5o4)cncc32)cc1` [S98, 2-(4-(4-Methoxybenzoyl)-3,4-dihydro-2H-pyrido[4,3-b][1,4]thiazin-8-yl)benzofuran-5-carbonitrile]: the half-inhibitory concentration (IC50) on human CYP11B2 amounted to 11 nM; at human CYP11B1, 1160 nM.
For `N#Cc1ccc(-c2cncc3c2SCC(=O)N3)cc1` [S99, 4-(3-Oxo-3,4-dihydro-2H-pyrido[4,3-b][1,4]thiazin-8-yl)benzonitrile], the IC50 at human CYP11B2 turned out to be 6.9 nM; against human CYP11B1, 703 nM.
With `N#Cc1ccc(-c2cncc3c2SCC(=O)N3C(=O)c2ccc(Cl)cc2)cc1` [S100, 4-(4-(4-chlorobenzoyl)-3-oxo-3,4-dihydro-2H-pyrido[4,3-b][1,4]thiazin-8-yl)benzonitrile], the IC50 on human CYP11B2 came to 10.6 nM; at human CYP11B1, 966 nM.
The matching figures for `N#CC1CN(S(=O)(=O)N2CCSc3c(-c4cc5cc(Cl)ccc5o4)cncc32)C1` [S101, 1-((8-(5-Chlorobenzofuran-2-yl)-2,3-dihydro-4H-pyrido[4,3-b][1,4]thiazin-4-yl)sulfonyl) azetidine-3-carbonitrile]: 25 nM and 2670 nM.
Take `O=S(=O)(N1CCn2cnnc2C1)N1CCSc2c(-c3cc4cc(Cl)ccc4o3)cncc21` [S102, 8-(5-Chlorobenzofuran-2-yl)-4-((5,6-dihydro-[1,2,4]triazolo[4,3-a]pyrazin-7 (8H)-yl)sulfonyl)-3,4-dihydro-2H-pyrido[4,3-b][1,4]thiazine]: the IC50 against human CYP11B2 worked out at 36 nM; against human CYP11B1 it was 3710 nM.
Turning to `O=S(=O)(C1CN(C2COC2)C1)N1CCSc2c(-c3cc4cc(Cl)ccc4o3)cncc21` [S103, 8-(5-Chlorobenzofuran-2-yl)-4-((1-(oxetan-3-yl)azetidin-3-yl)sulfonyl)-3,4-dihydro-2H-pyrido[4,3-b][1,4]thiazine], the concentration for half-maximal inhibition (IC50) on human CYP11B2 is 5 nM; against human CYP11B1, 955 nM.
